# Molecular target: T1, KIT(DKIN) (Homo sapiens, UniProt P10721)
# T1 construct: KIT(DKIN); made in house
# Assay: Binding constant (Kd) measurement, phage-displayed kinase competition binding assay: KIT(DKIN)
# Text: The term “ND” represents non-determined values.
# T1 sequence (P10721 589-937 limits assumed): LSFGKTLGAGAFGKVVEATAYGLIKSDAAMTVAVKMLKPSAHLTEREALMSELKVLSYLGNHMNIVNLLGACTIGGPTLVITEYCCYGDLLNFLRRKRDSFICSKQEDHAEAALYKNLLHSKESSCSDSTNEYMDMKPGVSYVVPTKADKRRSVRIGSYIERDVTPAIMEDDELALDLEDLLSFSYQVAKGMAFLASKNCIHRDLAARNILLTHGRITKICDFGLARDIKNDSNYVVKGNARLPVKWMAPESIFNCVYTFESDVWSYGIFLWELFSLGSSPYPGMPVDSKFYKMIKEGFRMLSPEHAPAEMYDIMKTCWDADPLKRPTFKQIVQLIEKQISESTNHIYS
row,SMILES,Kd [nM]
1,CC(C)(C)c1cc(NC(=O)Nc2ccc(C(=O)Nc3ccccc3)cc2)no1 [Compound N90],100 to 1000
2,CCOc1ccc(NC(=O)Nc2cc(C(C)(C)C)on2)cc1 [Compound G20],< 100
3,CSc1ncc(Br)c(C(=O)Nc2ccc(NC(=O)Nc3cc(C(C)(C)C)on3)cc2)n1 [Compound N114],100 to 1000
4,CC(C)(C)c1cc(NC(=O)Nc2ccc(C(=O)Nc3ccc(Cl)cc3)cc2)no1 [Compound N156],1000 to 10000
5,CC(C)(C)c1cc(NC(=O)Nc2ccc(OCC(O)CO)cc2)no1 (stereo not drawn) [Compound G28],100 to 1000
6,CC(C)(C)c1cc(NC(=O)Nc2ccc(OCCc3ccncc3)cc2)no1 [Compound G22],< 100
7,CC(C)(C)c1cc(NC(=O)Nc2ccc(C(N)=O)cc2)no1 [Compound N86],100 to 1000
8,CC(C)(C)c1cc(NC(=O)Nc2ccc(OCCN3CCSCC3)cc2)no1 [Compound G53],1000 to 10000
9,Cc1ccc(NC(=O)c2ccc(NC(=O)Nc3cc(C(C)(C)C)on3)cc2)cc1 [Compound N84],< 100
10,CC(C)(C)c1cc(NC(=O)Nc2ccc(OCc3ccc4nonc4c3)cc2)no1 [Compound G55],100 to 1000
11,CC(C)(C)c1cc(NC(=O)Nc2ccc(NC(=O)c3cnnc4ccccc34)cc2)no1 [Compound N147],100 to 1000
12,Cn1nc(C(C)(C)C)cc1NC(=O)Nc1cccc([N+](=O)[O-])c1 [Compound D21],> 10000
13,CC(C)(C)c1cc(NC(=O)Nc2ccc(NC(=O)c3c4ccccc4nc4ccccc34)cc2)no1 [Compound N148],1000 to 10000
14,"CC(C)(C)c1cc(NC(=O)Nc2ccc(N)cc2)no1 [Compound C1, 1-(5-tert-butylisoxazol-3-yl)-3-(4-aminophenyl)urea]",1000 to 10000
15,Cn1cc(C(=O)Nc2ccc(NC(=O)Nc3cc(C(C)(C)C)on3)cc2)c(C(F)(F)F)n1 [Compound N20],100 to 1000
16,CC(C)(C)c1cc(NC(=O)Nc2ccc(OCc3c(Cl)cccc3Cl)cc2)no1 [Compound G19],100 to 1000
17,CC(C)(C)c1cc(NC(=O)Nc2ccc(-c3ccccc3)cc2)no1 [Compound A23],100 to 1000
18,C=C/C(=C\C=C\Cl)NC(=O)Nc1ccc(C(=O)OCCOC)cc1 [Compound Z54],1000 to 10000
19,CN(Cc1cccc([N+](=O)[O-])c1)C(=O)Nc1cc(C(C)(C)C)on1 [Compound J3],1000 to 10000
20,CC(C)(C)c1cc(NC(=O)Nc2ccc(OCc3c(F)cccc3F)cc2)no1 [Compound G21],< 100
21,CC(C)(C)c1cc(NC(=O)Nc2ccc(Oc3ccccc3)cc2)no1 [Compound A24],100 to 1000

row,SMILES,Kd [nM]
1,Cc1ccc(S(=O)(=O)Nc2ccc(NC(=O)Nc3cc(C(C)(C)C)on3)cc2)cc1 [Compound V2],1000 to 10000
2,CC(C)(C)c1cc(NC(=O)Nc2ccc(OCCN3CCOCC3)cc2)no1 [Compound G40],1000 to 10000
3,Cn1nc(-c2ccccc2)c2cc(C(=O)Nc3ccc(NC(=O)Nc4cc(C(C)(C)C)on4)cc3)sc21 [Compound N5],100 to 1000
4,CC(C)(C)c1cc(NC(=O)Nc2ccc(OCc3ccccc3)cc2)no1 [Compound G31],< 100
5,CC(C)(C)OC(=O)Nc1ccc(NC(=O)Nc2cc(C(C)(C)C)on2)cc1 [Compound N101],100 to 1000
6,CC(C)(C)c1cc(NC(=O)Nc2ccc(OCc3cccc(F)c3)cc2)no1 [Compound G14],100 to 1000
7,O=C(Nc1ccno1)Nc1ccc(Cl)cc1Cl [Compound Z12],1000 to 10000
8,COC(=O)c1cccc(COc2ccc(NC(=O)Nc3cc(C(C)(C)C)on3)cc2)c1 [Compound G7],100 to 1000
9,Cc1ccc(-n2nc(C(C)(C)C)cc2NC(=O)Nc2cc(C(C)(C)C)on2)cc1 [Compound H11],> 10000
10,Cc1sc(NC(=O)Nc2ccc(Cl)cc2)c(C(N)=O)c1C [Compound Z58],100 to 1000
11,O=C(Nc1ccc(Cl)cc1)Nc1cc(C(F)(F)F)cc(Cl)n1 [Compound Z76],100 to 1000
12,CC(C)(C)c1cc(NC(=O)Nc2ccc(NC(=O)c3cccc4nsnc34)cc2)no1 [Compound N109],100 to 1000
13,CC(C)(C)c1cc(NC(=O)Nc2ccc(NC(=O)c3cc(Cl)cc(Cl)c3)cc2)no1 [Compound N29],100 to 1000
14,CCc1ccc(C(=O)Nc2ccc(NC(=O)Nc3cc(C(C)(C)C)on3)cc2)cc1 [Compound N32],100 to 1000
15,COc1cccc(CNC(=O)Nc2cc(C(C)(C)C)on2)c1 [Compound B3],1000 to 10000
16,CC(C)(C)c1cc(NC(=O)Nc2ccc(NC(=O)c3csnn3)cc2)no1 [Compound N14],100 to 1000
17,CC(C)(C)c1cc(NC(=O)Nc2ccc(NC(=O)Cc3csc4ccccc34)cc2)no1 [Compound N107],1000 to 10000
18,CC(C)(C)c1cc(NC(=O)Nc2ccc(NC(=O)C3CNCCN3)cc2)no1 (stereo not drawn) [Compound N152],> 10000
19,CC(C)(C)c1cc(NC(=O)Nc2ccc(C(=O)Nc3ccc(F)cc3F)cc2)no1 [Compound N153],100 to 1000
20,CC(C)(C)c1cc(NC(=O)Nc2ccc(OCc3ccccc3)cc2)on1 [Compound G30],100 to 1000
21,CC(C)(C)c1cc(NC(=O)Nc2ccc(NC(=O)c3ccnc4ccccc34)cc2)no1 [Compound N141],100 to 1000

row,SMILES,Kd [nM]
1,Cn1nc(C(C)(C)C)cc1C(=O)Nc1ccc(NC(=O)Nc2cc(C(C)(C)C)on2)cc1 [Compound N10],100 to 1000
2,CC(C)(C)c1cc(NC(=O)Nc2ccc(NC(=O)c3cnccn3)cc2)no1 [Compound N136],< 100
3,CC(C)(C)c1cc(NC(=O)Nc2ccc(NC(=O)c3c(Cl)cccc3Cl)cc2)no1 [Compound N94],100 to 1000
4,CC(C)(C)c1cc(NC(=O)Nc2ccc(NC(=O)c3c(F)cccc3C(F)(F)F)cc2)no1 [Compound N95],1000 to 10000
5,Cc1ccc(CNc2ccc(NC(=O)Nc3cc(C(C)(C)C)on3)cc2)cc1 [Compound O9],100 to 1000
6,CSc1ccc(NC(=O)Nc2cc(C(C)(C)C)on2)cc1 [Compound A37],100 to 1000
7,CC(C)(C)c1cc(NC(=O)Nc2ccc(NC(=O)CC(N)c3ccccc3Cl)cc2)no1 (stereo not drawn) [Compound N44],1000 to 10000
8,CC(C)(C)c1cc(NC(=O)Nc2ccc(-c3nc(-c4ccc(Cl)cc4)no3)cc2)no1 [Compound P7],100 to 1000
9,CC(C)(C)c1cc(NC(=O)Nc2ccc(NC(=O)c3ccc(Cl)nc3)cc2)no1 [Compound N125],1000 to 10000
10,CC(C)(C)c1cc(NC(=O)Nc2ccc(OCc3ccccc3-c3ccccc3)cc2)no1 [Compound G8],1000 to 10000
11,CC1CN(CCOc2ccc(NC(=O)Nc3cc(C(C)(C)C)on3)cc2)CC(C)O1 (stereo not drawn) [Compound G42],1000 to 10000
12,Cc1ccc(-c2cc(C(=O)Nc3ccc(NC(=O)Nc4cc(C(C)(C)C)on4)cc3)c(C)o2)cc1 [Compound N120],1000 to 10000
13,C[C@H](NC(=O)c1ccc(NC(=O)Nc2cc(C(C)(C)C)on2)cc1)c1ccccc1 [Compound N88],100 to 1000
14,CSc1ccc(NC(=O)Nc2cc(C(C)(C)C)no2)cc1 [Compound A39],100 to 1000
15,CC(C)(C)c1cc(NC(=O)Nc2ccc(OCc3ccc(-c4ccccc4)cc3)cc2)no1 [Compound G56],100 to 1000
16,CC(C)(C)c1cc(NC(=O)Nc2ccc(OCc3ccc(C(=O)c4ccccc4)cc3)cc2)no1 [Compound G9],100 to 1000
17,Cc1ccc(C(=O)Nc2ccc(NC(=O)Nc3cc(C(C)(C)C)on3)cc2)cn1 [Compound N142],100 to 1000
18,COc1nc(C)cc(C)c1C(=O)Nc1ccc(NC(=O)Nc2cc(C(C)(C)C)on2)cc1 [Compound N22],1000 to 10000
19,CC(C)(C)c1cc(NC(=O)Nc2ccc(C(=O)Nc3ccc(OCC4CCC4)cc3)cc2)no1 [Compound N100],100 to 1000
20,CC1CCCN(CCOc2ccc(NC(=O)Nc3cc(C(C)(C)C)on3)cc2)C1 (stereo not drawn) [Compound G44],> 10000
21,CC(C)(C)c1cc(NC(=O)Nc2ccc(NC(=O)c3ncccc3C(N)=O)cc2)no1 [Compound N6],1000 to 10000

row,SMILES,Kd [nM]
1,Cc1noc(-c2ccc(NC(=O)Nc3cc(C(C)(C)C)on3)cc2)n1 [Compound P9],< 100
2,CC(C)(C)c1cc(NC(=O)Nc2ccc(OCCN3CCOCC3)c3ccccc23)no1 [Compound K1],1000 to 10000
3,CC(C)(C)c1cc(NC(=O)Nc2ccc(NC(=O)c3cccc(O)n3)cc2)no1 [Compound N131],< 100
4,Cn1nc(-c2ccccc2)c(C(=O)Cc2ccc(NC(=O)Nc3cc(C(C)(C)C)on3)cc2)c1Cl [Compound N11],> 10000
5,CC(C)(C)c1cc(NC(=O)Nc2ccc(NC(=O)c3cccc4c3OCCO4)cc2)no1 [Compound N111],1000 to 10000
6,CC(C)(C)c1cc(NC(=O)Nc2ccc(NC(=O)c3c(F)cccc3F)cc2)no1 [Compound N37],1000 to 10000
7,CC(C)(C)c1cc(NC(=O)Nc2ccc(OCc3ccc(OC(F)(F)F)cc3)cc2)no1 [Compound G5],100 to 1000
8,Cc1c(Cl)cccc1NC(=O)Nc1cc(C(C)(C)C)on1 [Compound A5],1000 to 10000
9,Cn1cc(C(=O)Nc2ccc(NC(=O)Nc3cc(C(C)(C)C)on3)cc2)c2ccccc21 [Compound N119],100 to 1000
10,CC(C)(C)c1cc(NC(=O)Nc2ccc(F)cc2)no1 [Compound A47],1000 to 10000
11,CC(C)(C)c1cc(NC(=O)Nc2ccc(OCCN3CCC(O)CC3)cc2)no1 [Compound G48],> 10000
12,CC(C)(C)c1cc(NC(=O)Nc2ccc(NC(=O)CCc3ccccc3)cc2)no1 [Compound N96],100 to 1000
13,C/C=C/C(=O)Nc1ccc(NC(=O)Nc2cc(C(C)(C)C)on2)cc1 [Compound N93],1000 to 10000
14,CC(C)(C)c1cc(NC(=O)Nc2ccc(NC(=O)c3nccnc3C(N)=O)cc2)no1 [Compound N138],100 to 1000
15,CC(C)(C)c1cc(NC(=O)Nc2ccc(C(=O)Nc3cccc(C(F)(F)F)c3)cc2)no1 [Compound N154],1000 to 10000
16,CC(C)(C)c1cc(NC(=O)Nc2ccc(Cl)cc2Cl)no1 [Compound A7],1000 to 10000
17,CC(C)(C)c1cc(NC(=O)Nc2ccc(OCCc3ccc(F)cc3)cc2)no1 [Compound G24],100 to 1000
18,Cc1cccnc1-c1noc(-c2ccc(NC(=O)Nc3cc(C(C)(C)C)on3)cc2)n1 [Compound P4],100 to 1000
19,CC(C)(C)c1cc(NC(=O)Nc2ccc(Cl)cc2)on1 [Compound A32],100 to 1000
20,CC(C)(C)c1cc(N2CCCN(c3ccc(OCc4ccccc4)cc3)C2=O)on1 [Compound E2],1000 to 10000
21,CC(C)(C)c1cc(NC(=O)Nc2ccc(NC(=O)c3cccc4nsnc34)cc2)no1 [Compound N21],< 100

# — patent publication US20050192314A1, “Urea derivatives as C-kit modulators” (Ambit Biosciences Corporation, priority 2003, published 2005)
